# Measured values as given in US20210087217A1, “NUCLEOTIDE HEMI-SULFATE SALT FOR THE TREATMENT OF HEPATITIS C VIRUS” (Atea Pharmaceuticals, Inc., priority 2017, published 2021).
# Structures can show the parent of a compound that is named as a salt.
# Assay: Single ascending dose study of Compound 2 in healthy volunteers (Part A): safety, tolerability, pharmacokinetic
# Type: in vivo, human
# Conditions: healthy subjects
# Procedure: Compound 2 was tested in a single ascending dose (SAD) study to measure its safety, tolerability, and pharmacokinetic in healthy subjects (Part A). Part A was a randomized, double-blind, placebo-controlled SAD study. Healthy subjects in Part A received a single dose of Compound 2 or placebo in the fasting state. Subjects were confined to the clinic from Day −1 to Day 6.
# Dosing in each cohort was staggered such that 2 subjects (1 active:1 placebo) were evaluated for 48 hours after dosing before the remainder of the cohort was dosed. Each cohort received Compound 2 in ascending order. Dosing of sequential cohorts occurred based on review of available safety data (through Day 5) and plasma pharmacokinetic data (through 24 h) of the prior cohort.
# As pharmacokinetic and safety data emerged from prior cohorts, doses evaluated in Cohorts 3a-4a were adjusted by increments no more than 100 mg.
# Healthy volunteers in the Part A portion of the study were male and female subjects between the ages of 18 and 65. Active and placebo recipients were pooled within each Part A cohort to preserve the study blind.
# Pharmacokinetic of Compound 1 and nucleoside metabolite 1-7 were measured following the single dose of Compound 2. […] Values are reported as mean±SD, except or Tmax where median (range) is reported.
smiles,measurement,setting,value
"CNc1nc(N)nc2c1ncn2[C@@H]1O[C@H](CO[P@@](=O)(N[C@@H](C)C(=O)OC(C)C)Oc2ccccc2)[C@@H](O)[C@@]1(C)F [Compound 2, hemi-sulfate salt of isopropyl((S)-(((2R,3R,4R,5R)-5-(2-amino-6-(methylamino)-9H-purin-9-yl)-4-fluoro-3-hydroxy-4-methyltetrahydrofuran-2-yl)methoxy)(phenoxy)phosphoryl)-L-alaninate]",Intensity of adverse effects,Part A,mild to moderate
same,Serious adverse events,Part A,No serious adverse events
same,Tolerability,single oral dose,well tolerated
